Here are results for 34 compounds from patent US9365613B2, “Acylated 4-amidino- and -4-guanidinobenzylamines for inhibition of plasma kallikrein” (The Medicines Company (Leipzig) GmbH, priority 2003, dated 2016).

By Ki is commonly meant a measure of affinity in units of concentration, obtained from inhibition or displacement.

SMILES strings stand for the structures.

Holding throughout (assay type): biochemical
The target in one test is T1, human factor XIa (Homo sapiens, UniProt P03951).
T1 construct: purchased Haemochrom Diagnostica GmbH, Essen, Germany
The experiment in a line: Inhibitory constants for factor XIa (substrate H-D-Lys(Z)-Pro-Arg-pNA, Chromozym PCa). To be noted: read-out: Ki F XIa. As for the experimental part:
(§1) The inhibitory effect for the individual enzymes was determined in analogy with a method which has already been described (Stürzebecher et al., J. Med. Chem. 40, 3091-3099, 1997).
(§2) After 3 min, the reaction was terminated by adding 25 μl of acetic acid (50%) and the absorption at […] was determined using a Microplate Reader (Labsystems iEMS Reader MF). The Ki values were determined, in accordance with Dixon (Biochem. J. 55, 170-171, 1953), by means of linear regression and using a computer program. The Ki values are the mean of at least three determinations.
(§3) The inhibition of factor XIa and factor XIIa was determined in an analogous manner. When determining the inhibitory constants for human factor XIa (Haemochrom Diagnostica GmbH, Essen, Germany), H-D-Lys(Z)-Pro-Arg-pNA (Chromozym PCa, Roche Diagnostics GmbH, Mannheim, Germany) was used as the substrate.

A further test deals with thrombin (UniProt P00735). Put plainly: Inhibitory constants for thrombin. As to conditions: read-out: Ki Thrombin.
The target in the next test is T2, human factor XIIa (Homo sapiens, UniProt P00748).
T2 construct: purchased Haemochrom Diagnostica GmbH, Essen, Germany
Put plainly: Inhibitory constants for factor XIIa (substrate H-D-HHT-Gly-Arg-pNA, Chromozym XII). As to conditions: read-out: Ki F XIIa. Here is the method:
as §1, §2, §3
H-D-HHT-Gly-Arg-pNA (Chromozym XII, Roche Diagnostics GmbH, Mannheim, Germany) was used as the substrate for measuring the inhibitory constants of human factor XIIa (Haemochrom Diagnostica GmbH, Essen, Germany).

The target in another test is plasma kallikrein (PK) (Homo sapiens, UniProt P03952). The experiment in a line: Determining the inhibitory constants: inhibition of PK (substrate Bzl-Pro-Phe-Arg-pNA). To be noted: Tris buffer pH 8.0, 25° C.; mean of at least three determinations. As for the experimental part: as §1, §2
plasma kallikrein (PK), sequence (P03952 391-638 limits assumed, species assumed): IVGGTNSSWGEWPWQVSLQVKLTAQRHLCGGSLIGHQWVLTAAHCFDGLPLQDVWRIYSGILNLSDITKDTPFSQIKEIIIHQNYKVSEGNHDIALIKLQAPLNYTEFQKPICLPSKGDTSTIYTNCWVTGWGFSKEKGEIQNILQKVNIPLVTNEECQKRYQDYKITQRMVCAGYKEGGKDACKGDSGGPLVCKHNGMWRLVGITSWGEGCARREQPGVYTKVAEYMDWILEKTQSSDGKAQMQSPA
plasma kallikrein (PK), sequence (P03952 20-390 partner limits assumed, species assumed): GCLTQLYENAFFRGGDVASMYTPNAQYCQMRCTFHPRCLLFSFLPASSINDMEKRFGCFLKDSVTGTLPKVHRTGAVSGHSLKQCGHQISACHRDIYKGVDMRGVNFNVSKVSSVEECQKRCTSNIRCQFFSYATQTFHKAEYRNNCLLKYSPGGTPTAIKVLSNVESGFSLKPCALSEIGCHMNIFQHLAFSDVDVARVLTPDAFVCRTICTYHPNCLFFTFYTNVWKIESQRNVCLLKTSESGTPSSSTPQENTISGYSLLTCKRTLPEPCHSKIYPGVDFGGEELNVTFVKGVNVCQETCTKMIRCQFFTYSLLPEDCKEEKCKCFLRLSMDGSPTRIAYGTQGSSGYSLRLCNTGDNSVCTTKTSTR

T2 sequence (P00748 373-615 limits assumed, other chains not shown): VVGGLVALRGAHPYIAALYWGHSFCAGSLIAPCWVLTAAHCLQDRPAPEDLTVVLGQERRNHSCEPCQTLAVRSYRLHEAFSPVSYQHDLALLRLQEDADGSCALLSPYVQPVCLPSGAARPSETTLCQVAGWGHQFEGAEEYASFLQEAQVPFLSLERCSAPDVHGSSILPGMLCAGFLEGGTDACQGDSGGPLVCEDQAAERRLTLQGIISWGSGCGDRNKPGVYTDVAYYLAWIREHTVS
T1 sequence (P03951 388-625 limits assumed): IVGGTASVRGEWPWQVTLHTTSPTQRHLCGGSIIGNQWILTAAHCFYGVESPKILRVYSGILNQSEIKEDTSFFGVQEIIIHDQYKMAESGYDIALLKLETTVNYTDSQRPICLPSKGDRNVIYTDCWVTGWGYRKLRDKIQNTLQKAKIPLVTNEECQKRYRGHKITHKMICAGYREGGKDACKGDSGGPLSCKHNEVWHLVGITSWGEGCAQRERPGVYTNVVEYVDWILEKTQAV
T1 sequence (P03951 19-387 partner limits assumed): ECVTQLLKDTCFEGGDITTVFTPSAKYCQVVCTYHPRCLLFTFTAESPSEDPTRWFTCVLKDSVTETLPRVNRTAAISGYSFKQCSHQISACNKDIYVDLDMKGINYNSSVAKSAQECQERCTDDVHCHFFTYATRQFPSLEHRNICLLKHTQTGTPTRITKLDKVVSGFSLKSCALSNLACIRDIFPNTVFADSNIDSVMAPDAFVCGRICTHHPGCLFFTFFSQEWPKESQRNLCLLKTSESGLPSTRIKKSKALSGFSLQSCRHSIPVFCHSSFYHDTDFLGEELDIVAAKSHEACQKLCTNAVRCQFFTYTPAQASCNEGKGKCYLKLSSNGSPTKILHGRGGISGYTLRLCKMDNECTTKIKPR

With `C[C@@H](O)[C@H](NC(=O)[C@@H](CO)NS(=O)(=O)Cc1ccccc1)C(=O)NCc1ccc(C(=N)N)cc1` [Inhibitor 13], the Ki on human factor XIa came to 0.25 µM; on thrombin, 4 µM; on human factor XIIa it was 51 µM; on plasma kallikrein (PK), 0.24 µM.
In the same order, the values of `N=C(N)c1ccc(CNC(=O)[C@H](CO)NC(=O)[C@@H](CO)NS(=O)(=O)Cc2ccc(C(=O)O)cc2)cc1` [Inhibitor 23] are 0.17 µM, 120 µM, greater than 1000 µM and 0.029 µM.
Regarding `N=C(N)c1ccc(CNC(=O)[C@H](CC(=O)O)NC(=O)[C@@H](CO)NS(=O)(=O)Cc2ccccc2)cc1` [Inhibitor 4], the Ki at thrombin is greater than 1000 µM; at human factor XIIa it was greater than 1000 µM; on plasma kallikrein (PK), 3.7 µM.
For the compound `CC(C)(C)OC[C@@H](NS(=O)(=O)Cc1ccccc1)C(=O)N[C@@H](CCC(N)=O)C(=O)NCc1ccc(C(=N)N)cc1` [Inhibitor 31], the inhibitory constant (Ki) at human factor XIa is 0.067 µM; on thrombin, 0.021 µM; on human factor XIIa it was 6.3 µM; at plasma kallikrein (PK) it was 0.0092 µM.
As to `N=C(N)c1ccc(CNC(=O)CNC(=O)[C@@H](CCc2ccccc2)NS(=O)(=O)Cc2ccc(N)cc2)cc1` [Inhibitor 78], the inhibition constant (Ki) on human factor XIa turned out to be 0.12 µM; on human factor XIIa, 0.26 µM; at plasma kallikrein (PK) it was 0.045 µM.
Regarding `N=C(N)c1ccc(CNC(=O)C[C@H](CO)NC(=O)[C@@H](CO)NS(=O)(=O)Cc2ccccc2)cc1` [Inhibitor 17], the results for the Ki at thrombin, on human factor XIIa and on plasma kallikrein (PK) were 8.5 µM, greater than 1000 µM and 0.02 µM, respectively.
Consider `N=C(N)c1ccc(CNC(=O)[C@H](COCc2ccccc2)NC(=O)[C@@H](CO)NS(=O)(=O)Cc2ccccc2)cc1` [Inhibitor 16], for which the Ki amounted to 0.3 µM at human factor XIa, 0.48 µM at thrombin, 9.8 µM at human factor XIIa and 0.025 µM on plasma kallikrein (PK).
On the same counts, the results for `N=C(N)c1ccc(CNC(=O)[C@H](CCCCNC(=O)COCC(=O)NCCOCCOCCOCCOCCOCCOCCOCCN)NC(=O)[C@@H](CC2CCCCC2)NS(=O)(=O)Cc2ccccc2)cc1` [Inhibitor 58] are 0.23 µM, 0.008 µM, 2 µM and 0.059 µM.
In the same order, the values of `N=C(N)NCCC[C@@H](NS(=O)(=O)Cc1ccccc1)C(=O)NCC(=O)NCc1ccc(C(=N)N)cc1` [Inhibitor 81] are 0.7 µM, 1.4 µM, 0.35 µM and 0.074 µM.
In the same order, the values of `CC(C)(C)OC[C@@H](NS(=O)(=O)Cc1ccc(CN)cc1)C(=O)NCC(=O)NCc1ccc(C(=N)N)cc1` [Inhibitor 50] are 2.9 µM, 0.12 µM, 1.8 µM and 4 µM.
On to `N=C(N)c1ccc(CNC(=O)[C@H](CCC(N)=O)NC(=O)[C@@H](CO)NS(=O)(=O)Cc2ccccc2)cc1` [Inhibitor 6], for which the Ki at human factor XIa amounted to 0.13 µM; on thrombin, 0.49 µM; on human factor XIIa, 25 µM; at plasma kallikrein (PK), 0.047 µM.
In the same order, the values of `CC(C)(C)OC[C@@H](NS(=O)(=O)Cc1ccc(C(=O)O)cc1)C(=O)N[C@@H](CO)C(=O)NCc1ccc(C(=N)N)cc1` [Inhibitor 65] are 0.03 µM, 2 µM, 17 µM and 0.015 µM.
In the same order, the values of `N=C(N)c1ccc(CNC(=O)[C@H](CCc2ccccc2)NC(=O)[C@@H](CO)NS(=O)(=O)Cc2ccccc2)cc1` [Inhibitor 19] are 0.084 µM, 1.2 µM, 2.8 µM and 0.048 µM.
As to `N=C(N)c1ccc(CNC(=O)[C@H](CCCCNC(=O)CCC(=O)O)NC(=O)[C@@H](CC2CCCCC2)NS(=O)(=O)Cc2ccccc2)cc1` [Inhibitor 71], the Ki at thrombin was determined as 0.0021 µM; at human factor XIIa, 11 µM; at plasma kallikrein (PK), 0.029 µM.
Regarding `N=C(N)c1ccc(CNC(=O)CNC(=O)[C@@H](CO)NS(=O)(=O)Cc2ccc(CN)cc2)cc1` [Inhibitor 25], the Ki on human factor XIa was determined as 6 µM; on thrombin it was 8 µM; at human factor XIIa it was 17 µM; at plasma kallikrein (PK), 6.3 µM.
Regarding `C[C@H](NC(=O)[C@@H](CO)NS(=O)(=O)Cc1ccccc1)C(=O)NCc1ccc(C(=N)N)cc1` [Inhibitor 2], the Ki at human factor XIa came to 0.11 µM; at thrombin, 0.11 µM; on human factor XIIa it was 9.2 µM; at plasma kallikrein (PK), 0.07 µM.
For `CC(C)(C)OC[C@@H](NS(=O)(=O)Cc1ccccc1)C(=O)N[C@@H](CN)C(=O)NCc1ccc(C(=N)N)cc1` [Inhibitor 33], the Ki at human factor XIa was 0.19 µM; on thrombin, 0.0094 µM; at human factor XIIa, 4 µM; on plasma kallikrein (PK), 0.022 µM.
As for `N=C(N)c1ccc(CNC(=O)CNC(=O)[C@H](NS(=O)(=O)Cc2ccccc2)C2Cc3ccccc3C2)cc1` [Inhibitor 83], the Ki on thrombin was determined as 0.14 µM; on human factor XIIa, 0.37 µM; at plasma kallikrein (PK), 0.075 µM.
On to `N=C(N)c1ccc(CNC(=O)[C@H](CO)NC(=O)[C@@H](CCc2ccc(O)cc2)NS(=O)(=O)Cc2ccccc2)cc1` [Inhibitor 73], for which the Ki at human factor XIa stood at 0.078 µM; on human factor XIIa it was 0.28 µM; on plasma kallikrein (PK), 0.13 µM.
For `N=C(N)c1ccc(CNC(=O)[C@H](CCC(=O)O)NC(=O)[C@@H](CO)NS(=O)(=O)Cc2ccccc2)cc1` [Inhibitor 5], the Ki on thrombin was 38 µM; on human factor XIIa, greater than 1000 µM; at plasma kallikrein (PK), 1.1 µM.
In the same order, the values of `CC(C)(C)OC[C@@H](NS(=O)(=O)Cc1ccc(C(=O)O)cc1)C(=O)N1CCC[C@H]1C(=O)NCc1ccc(C(=N)N)cc1` [Inhibitor 70] are 0.0023 µM, 2.4 µM and 0.025 µM.
With `N=C(N)c1ccc(CNC(=O)CNC(=O)[C@@H](CCc2ccccc2)NS(=O)(=O)Cc2ccccc2)cc1` [Inhibitor 76], the Ki on human factor XIa was 0.27 µM; at human factor XIIa, 0.15 µM; on plasma kallikrein (PK), 0.39 µM.
Turning to `CC(C)(C)OC[C@@H](NS(=O)(=O)Cc1ccccc1)C(=O)N[C@@H](CCCCNC(=O)C(F)(F)F)C(=O)NCc1ccc(C(=N)N)cc1` [Inhibitor 62], the figures for the Ki on thrombin, on human factor XIIa and on plasma kallikrein (PK) were 0.0029 µM, 6.1 µM and 0.011 µM, respectively.
As to `N=C(N)c1ccc(CNC(=O)CNC(=O)[C@@H](CCc2ccc(O)cc2)NS(=O)(=O)Cc2ccccc2)cc1` [Inhibitor 75], the Ki at human factor XIa is 0.61 µM; at human factor XIIa it was 0.78 µM; at plasma kallikrein (PK), 0.12 µM.
As for `N=C(N)c1ccc(CNC(=O)[C@H](CCC(=O)O)NC(=O)[C@@H](CCc2ccc(O)cc2)NS(=O)(=O)Cc2ccccc2)cc1` [Inhibitor 72], the inhibition constant (Ki) on human factor XIa was 0.028 µM; at human factor XIIa, 0.36 µM; on plasma kallikrein (PK) it was 0.22 µM.
As to `CC(C)(C)OC[C@@H](NS(=O)(=O)Cc1ccc(CC(=O)O)cc1)C(=O)N1CCC[C@H]1C(=O)NCc1ccc(C(=N)N)cc1` [Inhibitor 66], the Ki worked out at 0.0018 µM on thrombin, 4 µM on human factor XIIa and 0.016 µM at plasma kallikrein (PK).
On the same counts, the results for `CC(C)(C)OC[C@@H](NS(=O)(=O)Cc1ccc(C(=O)O)cc1)C(=O)NCC(=O)NCc1ccc(C(=N)N)cc1` [Inhibitor 46] are 2.2 µM, 7.5 µM and 0.029 µM.
With `N=C(N)c1ccc(CNC(=O)CNC(=O)C(CCc2ccncc2)NS(=O)(=O)Cc2ccccc2)cc1` (stereo not drawn) [Inhibitor 85], the Ki stood at 1.1 µM on human factor XIa, 0.4 µM at human factor XIIa and 0.13 µM at plasma kallikrein (PK).
Regarding `N#Cc1cccc(CS(=O)(=O)N[C@H](CC2CCCCC2)C(=O)N2CCC[C@H]2C(=O)NCc2ccc(C(=N)N)cc2)c1` [Inhibitor 52], the Ki is less than 0.001 µM on thrombin, 13 µM on human factor XIIa and 0.086 µM at plasma kallikrein (PK).
In the same order, the values of `CC(C)(C)OC[C@@H](NS(=O)(=O)Cc1ccccc1)C(=O)N[C@@H](Cc1c[nH]cn1)C(=O)NCc1ccc(C(=N)N)cc1` [Inhibitor 64] are 0.12 µM, 61 µM and 0.014 µM.
On to `N=C(N)c1ccc(CNC(=O)[C@H](CO)NC(=O)[C@@H](CCc2ccncc2)NS(=O)(=O)Cc2ccccc2)cc1` [Inhibitor 69], for which the figures for the Ki at thrombin, on human factor XIIa and on plasma kallikrein (PK) were 0.91 µM, 1.6 µM and 0.02 µM, respectively.
In the same order, the values of `C[C@@H](O)[C@H](NC(=O)[C@@H](COC(C)(C)C)NS(=O)(=O)Cc1ccccc1)C(=O)NCc1ccc(C(=N)N)cc1` [Inhibitor 38] are 0.044 µM, 14 µM and 0.032 µM.
In the same order, the values of `CC(C)(C)OC[C@@H](NS(=O)(=O)Cc1ccccc1)C(=O)N[C@@H](CCONC(=N)N)C(=O)NCc1ccc(C(=N)N)cc1` [Inhibitor 68] are 0.038 µM, 6.8 µM and 0.019 µM.
`N=C(N)c1ccc(CNC(=O)[C@H](CCCCNC(=O)CCCC(=O)O)NC(=O)[C@@H](CO)NS(=O)(=O)Cc2ccccc2)cc1` [Inhibitor 86]: the Ki was found to be 2.8 µM on thrombin and 0.39 µM at plasma kallikrein (PK).
